Source: PMC10873021 (Biochemistry, 2023)

Experiments:
PglJ Cc 13826 [1] = details: 1 mM ligand; 10 mM HEPES pH 7.5; 150 mM NaCl; 5% glycerol; 2 mM DTT; 0.03% DDM
PglJ Cc 33237 [2] = details: 1 mM ligand; 10 mM HEPES pH 7.5; 150 mM NaCl; 5% glycerol; 2 mM DTT; 0.03% DDM
PglJ Cc 13826 [3] = details: 20 μM Und-PP-diNAcBac-GalNAc; 0.1 nM enzyme; 5 mM MgCl2; 0.1% Triton X-100; 50 mM HEPES pH 7.5; 100 mM NaCl
PglJ Cc 33237 [4] = details: 20 μM Und-PP-diNAcBac-GalNAc; 0.1 nM enzyme; 5 mM MgCl2; 0.1% Triton X-100; 50 mM HEPES pH 7.5; 100 mM NaCl
PglJ Cj 11168 = PglJ Cj 11168 (Campylobacter jejuni, UniProt Q0P9C7); experiment: UDP-Glo glycosyltransferase assay, UDP-sugar screen; type: biochemical; details: 10 nM enzyme; 25 μM UDP-sugar; 20 μM Und-PP-diNAcBac-GalNAc; 5 mM MgCl2; pH 7.5
PglJ Cc 33237 [5] = details: 25 μM UDP-sugar; 20 μM Und-PP-diNAcBac-GalNAc; 5 mM MgCl2; pH 7.5; varying enzyme

Structure (SMILES) | dTm (PglJ Cc 13826 [1]) | dTm (PglJ Cc 33237 [2]) | other results
CC(=O)N[C@H]1[C@@H](OP(=O)(O)OP(=O)(O)OC[C@H]2O[C@@H](n3ccc(=O)[nH]c3=O)[C@H](O)[C@@H]2O)O[C@H](C(=O)O)[C@@H](O)[C@@H]1O [UDP-GlcNAcA] | (UDP-GalNAcA and UDP-GlcNAcA) stabilized the PglJ enzymes from both strains of C. concisus studied | (UDP-GalNAcA and UDP-GlcNAcA) stabilized the PglJ enzymes from both strains of C. concisus studied | 
O=c1ccn([C@@H]2O[C@H](COP(=O)(O)OP(=O)(O)O)[C@@H](O)[C@H]2O)c(=O)[nH]1 [UDP] | Significant stabilization was observed with UDP, the nucleotide product of the glycosyltransferase reaction | Significant stabilization was observed with UDP, the nucleotide product of the glycosyltransferase reaction | 
CC(=O)N[C@H]1[C@@H](OP(=O)(O)OP(=O)(O)OC[C@H]2O[C@@H](n3ccc(=O)[nH]c3=O)[C@H](O)[C@@H]2O)O[C@H](C(=O)O)[C@H](O)[C@@H]1O [UDP-GalNAcA] |  |  | Km (PglJ Cc 13826 [3]): 3.8 ± 1.9 µM; Km (PglJ Cc 33237 [4]): 7.4 ± 2.5 µM
CC(=O)N[C@H]1[C@@H](OP(=O)(O)OP(=O)(O)OC[C@H]2O[C@@H](n3ccc(=O)[nH]c3=O)[C@H](O)[C@@H]2O)O[C@H](CO)[C@H](O)[C@@H]1O [UDP-GalNAc] |  |  | UDP-Glo glycosyltransferase assay, UDP-sugar screen (PglJ Cj 11168): At the same concentration, the PglJ from C. jejuni preferred UDP-GalNAc; UDP-Glo glycosyltransferase assay, UDP-sugar screen (PglJ Cc 33237 [5]): this variant now transfers GalNAc from UDP-GalNAc onto the growing Und-PP-glycan
